Biological target: T1, NhyDAAO (Natronosporangium hydrolyticum, UniProt A0A895YFV4)
T1 construct: gene JQS43_10680; recombinant, gene cloned, expression in E. coli in progress
T1 sequence (A0A895YFV4 1-316): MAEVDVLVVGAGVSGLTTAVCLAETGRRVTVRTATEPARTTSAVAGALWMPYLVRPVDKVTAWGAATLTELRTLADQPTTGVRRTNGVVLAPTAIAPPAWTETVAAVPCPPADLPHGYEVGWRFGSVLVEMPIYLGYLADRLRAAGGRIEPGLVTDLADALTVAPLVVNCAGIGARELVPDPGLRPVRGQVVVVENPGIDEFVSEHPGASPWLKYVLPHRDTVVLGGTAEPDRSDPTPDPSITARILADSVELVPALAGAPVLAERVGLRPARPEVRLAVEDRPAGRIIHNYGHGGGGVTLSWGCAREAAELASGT
Test: D-amino acid oxidase activity, preliminary experiments, method not given
Type: cell-based
Conditions: conditions and enzyme purity not told; named among the best substrates

SMILES | D-amino acid oxidase activity, preliminary experiments, method not given
CC(C)C[C@@H](N)C(=O)O [D-Leu] | Preliminary experiments confirmed that D-Leu and D-Phe are the best substrates for NhyDAAO
N[C@H](Cc1ccccc1)C(=O)O [D-Phe] | Preliminary experiments confirmed that D-Leu and D-Phe are the best substrates for NhyDAAO
